Measurements taken from ChEMBL document CHEMBL4043207, “Discovery of a novel, CNS penetrant M4 PAM chemotype based on a 6-fluoro-4-(piperidin-1-yl)quinoline-3-carbonitrile core” (Bioorg Med Chem Lett, 2017).

How the values were obtained:
[1] = target: T1, Muscarinic acetylcholine receptor M4 (Homo sapiens, UniProt P08173); test: Positive allosteric modulation of human M4 receptor expressed in CHO cells co-expressing Gqi5 assessed as increase in acetylcholine-induced calcium mobilization; assay type: functional, cell-based
T1 sequence (P08173 whole entry): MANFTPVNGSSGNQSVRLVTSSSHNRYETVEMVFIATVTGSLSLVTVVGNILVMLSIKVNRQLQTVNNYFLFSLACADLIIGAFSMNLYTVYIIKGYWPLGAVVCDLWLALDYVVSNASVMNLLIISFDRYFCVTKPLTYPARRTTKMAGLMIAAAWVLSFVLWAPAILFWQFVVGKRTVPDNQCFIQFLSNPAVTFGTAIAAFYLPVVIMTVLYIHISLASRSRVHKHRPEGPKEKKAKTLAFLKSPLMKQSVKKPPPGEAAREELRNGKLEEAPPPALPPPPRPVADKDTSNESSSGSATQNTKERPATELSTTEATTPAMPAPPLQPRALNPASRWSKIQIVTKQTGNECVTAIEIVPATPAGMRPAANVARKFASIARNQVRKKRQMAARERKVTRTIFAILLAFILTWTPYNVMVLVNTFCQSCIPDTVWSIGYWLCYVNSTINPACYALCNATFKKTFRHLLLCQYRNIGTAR

[2] = target: T2, Muscarinic acetylcholine receptor M4 (Homo sapiens) (UniProt P08173); test: Positive allosteric modulation of human M4 receptor expressed in CHO cells co-expressing Gqi5 assessed as increase in acetylcholine-induced calcium mobilization relative to acetylcholine; assay type: functional, cell-based
T2 sequence (whole entry): T1 sequence (P08173 whole entry)

[3] = (§1) Fraction unbound in human plasma; assay type: ADME, cell-free
[4] = Fraction unbound in rat plasma; assay type: ADME, cell-free
[5] = Clearance in rat hepatocytes; assay type: ADME, cell-based, Hepatocyte
[6] = Clearance in human hepatocytes; assay type: ADME, cell-based, Hepatocyte
[7] = Fraction unbound in rat brain; assay type: ADME, tissue-based
[8] = Brain to plasma permeability coefficient, Kp of the compound in Sprague-Dawley rat at 0.1 to 0.2 mg/kg, iv administered as cassette dose after 25 mins; assay type: ADME, organism-based; conditions: brain and plasma
[9] = Ratio of unbound concentration in brain to plasma in Sprague-Dawley rat at 0.1 to 0.2 mg/kg, iv administered as cassette dose after 25 mins; assay type: ADME, organism-based; conditions: brain and plasma, read-out: K(p,uu,brain)
MDR1 (P-gp) = test: Efflux ratio of apparent permeability in MDCK-MDR1 cells; assay type: ADME, cell-based, Canis lupus familiaris; conditions: dog
[10] = target: T3, Muscarinic acetylcholine receptor M4 (Rattus norvegicus, UniProt P08485); test: Positive allosteric modulation of rat M4 receptor assessed as increase in acetylcholine-induced response
T3 sequence (P08485 whole entry): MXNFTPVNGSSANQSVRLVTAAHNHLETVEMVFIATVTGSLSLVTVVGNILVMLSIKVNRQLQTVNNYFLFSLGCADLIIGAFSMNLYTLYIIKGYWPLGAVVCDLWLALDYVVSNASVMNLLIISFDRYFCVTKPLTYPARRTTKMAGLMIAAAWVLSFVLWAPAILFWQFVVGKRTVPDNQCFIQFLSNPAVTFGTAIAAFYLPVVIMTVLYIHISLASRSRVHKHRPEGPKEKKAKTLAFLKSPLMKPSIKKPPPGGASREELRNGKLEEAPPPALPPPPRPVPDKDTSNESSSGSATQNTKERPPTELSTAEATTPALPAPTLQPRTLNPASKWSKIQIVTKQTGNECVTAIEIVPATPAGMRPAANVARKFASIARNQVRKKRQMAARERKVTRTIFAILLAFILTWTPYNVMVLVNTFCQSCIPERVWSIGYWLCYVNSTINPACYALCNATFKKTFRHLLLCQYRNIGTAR

[11] = Clearance in rat plasma at 0.2 mg/kg administered as iv cassette dose; assay type: ADME, organism-based
[12] = Half life in rat plasma at 0.2 mg/kg administered as iv cassette dose; assay type: ADME, organism-based
[13] = Volume of distribution at steady state in rat plasma at 0.2 mg/kg administered as iv cassette dose; assay type: ADME, organism-based; conditions: read-out: Vdss
[14] = Clearance in dog plasma at 0.2 mg/kg administered as iv cassette dose; assay type: ADME, organism-based, Canis lupus familiaris
[15] = Half life in dog plasma at 0.2 mg/kg administered as iv cassette dose; assay type: ADME, organism-based, Canis lupus familiaris
[16] = Volume of distribution at steady state in dog plasma at 0.2 mg/kg administered as iv cassette dose; assay type: ADME, organism-based, Canis lupus familiaris; conditions: read-out: Vdss
Plasma [17] = test: Fraction unbound in dog plasma at 0.2 mg/kg administered as iv casette dose; assay type: ADME, organism-based, Canis lupus familiaris; conditions: in vivo
[18] = Apparent permeability in MDCK-MDR1 cells; assay type: ADME, cell-based, Canis lupus familiaris; conditions: dog
[19] = target: T4, Muscarinic acetylcholine receptor M4 (Rattus norvegicus) (UniProt P08485); test: Positive allosteric modulation of rat M4 receptor assessed as increase in acetylcholine-induced response relative to acetylcholine
T4 sequence (whole entry): T3 sequence (P08485 whole entry)

[20] = Ratio of unbound concentration in brain to plasma in rat; assay type: ADME
[21] = Brain to plasma permeability coefficient, Kp of the compound in rat; assay type: ADME
Plasma [22] = test: as §1; assay type: ADME, cell-free

SMILES | EC50 ([1]; read-out: EC50) | Emax [2] | EC50 ([1]; read-out: pEC50 (converted)) | further results
N#Cc1cnc2ccc(F)cc2c1N1CCC(C(=O)N2CCSCC2)CC1 | 1410 nM | 88% |  | 
N#Cc1cnc2ccc(F)cc2c1N1CCC(Oc2cccnc2)CC1 | 1300 nM | 80% |  | 
Cc1ccc(OC2CCN(c3c(C#N)cnc4c(F)cc(F)cc34)CC2)cn1 | 223 nM | 93% | 209 nM | 
N#Cc1cnc2ccc(F)cc2c1N1CCC(Oc2ccc(Cl)nc2)CC1 | 577 nM | 80% | 562 nM | 
N#Cc1cnc2ccc(F)cc2c1N1CCC(C(=O)N2CCOCC2)CC1 | 6440 nM | 78% |  | 
Cc1cc(C)c(OC2CCN(c3c(C#N)cnc4ccc(F)cc34)CC2)cn1 | > 10000 nM |  | > 31600 nM | 
N#Cc1ccc(OC2CCN(c3c(C#N)cnc4ccc(F)cc34)CC2)cn1 | > 10000 nM | 49% |  | 
Cc1ccc(OC2CCN(c3c(C#N)cnc4ccc(F)cc34)CC2)c(C)n1 | > 10000 nM |  | > 31600 nM | 
Cc1ccc(OC2CCN(c3c(C#N)cnc4c(C)cc(F)cc34)CC2)cn1 | 2070 nM | 82% |  | 
N#Cc1cnc2ccc(F)cc2c1N1CCC(C(=O)Nc2cccnc2)CC1 | 619 nM | 68% |  | 
COc1ccccc1CNC(=O)C1CCN(c2c(C#N)cnc3ccc(F)cc23)CC1 | 651 nM | 48% | 589 nM | 
N#Cc1cnc2ccc(F)cc2c1N1CCC(C(=O)Nc2ccc(S(N)(=O)=O)cc2)CC1 | 248 nM | 63% | 229 nM | fraction unbound [3]: 0.064; fraction unbound [4]: 0.016; CLhep predicted [5]: 34 mL/min/kg; CLhep predicted [6]: 13 mL/min/kg; fraction unbound [7]: 0.01; Kp at 25 min [8]: 0.16; Kp uu at 25 min [9]: 0.1; efflux ratio (MDR1 (P-gp)): 83
Cc1ccc(OC2CCN(c3c(C#N)cnc4ccc(F)cc34)CC2)c(F)n1 | 5640 nM | 53% | 5370 nM | 
Cc1ccc(OC2CCN(c3c(C#N)cnc4cc(F)c(F)cc34)CC2)cn1 | 571 nM | 92% | 562 nM | 
Cn1nccc1NC(=O)C1CCN(c2c(C#N)cnc3ccc(F)cc23)CC1 | 1760 nM | 81% | 1660 nM | 
Cc1ccc(OC2CCN(c3c(C#N)cnc4ccc(F)cc34)CC2)cn1 | 197 nM | 79% |  | EC50 [10]: 437 nM; clearance [11]: 36 mL/min/kg; half-life [12]: 102 min; Vd [13]: 3.2 L/kg; clearance [14]: 41 mL/min/kg; half-life [15]: 96 min; Vd [16]: 4 L/kg; Fu (Plasma [17]): 0.045; fraction unbound [3]: 0.024; fraction unbound [4]: 0.031; CLhep predicted [5]: 52 mL/min/kg; CLhep predicted [6]: 15 mL/min/kg; fraction unbound [7]: 0.014; Kp at 25 min [8]: 5.25 to 5.3; Kp uu at 25 min [9]: 2.37 to 2.4; efflux ratio (MDR1 (P-gp)): 1.1; Papp [18]: 28 ×10⁻⁶ cm/s; Emax [19]: 74%

SMILES | EC50 ([1]; read-out: EC50) | Emax [2] | EC50 ([1]; read-out: pEC50 (converted)) | further results
N#Cc1cnc2ccc(F)cc2c1N1CCC(C(=O)Nc2ccc(F)c(F)c2)CC1 | 565 nM | 52% |  | 
N#Cc1cnc2ccc(F)cc2c1N1CCC(Oc2ccccc2)CC1 | 3260 nM | 81% |  | 
N#Cc1cnc2ccc(F)cc2c1N1CCC(C(=O)Nc2ccncn2)CC1 | 940 nM | 59% |  | 
Cc1ccc(OC2CCN(c3c(C#N)cnc4ccc(Cl)cc34)CC2)cn1 | 905 nM | 72% |  | 
N#Cc1cnc2ccc(F)cc2c1N1CCC(C(=O)Nc2ccccn2)CC1 | 912 nM | 44% | 871 nM | 
Cc1ccc2ncc(C#N)c(N3CCC(Oc4ccc(C)nc4)CC3)c2c1 | 3020 nM | 67% | 2950 nM | 
N#Cc1cnc2ccc(F)cc2c1N1CCC(Oc2ccc(F)nc2)CC1 | 512 nM | 83% | 490 nM | 
N#Cc1cnc2ccc(F)cc2c1N1CCC(C(=O)Nc2ccncc2)CC1 | 147 nM | 73% |  | 
COc1ccc(CNC(=O)C2CCN(c3c(C#N)cnc4ccc(F)cc34)CC2)cc1 | 664 nM | 60% | 617 nM | 
COc1ccc(CNC(=O)C2CCN(c3c(C#N)cnc4ccc(F)cc34)CC2)cc1F | 1090 nM | 65% | 1050 nM | K(p,uu,brain) [20]: 0.26; Kp [21]: 0.29; CLhep predicted [5]: 61 mL/min/kg; CLhep predicted [6]: 19 mL/min/kg
N#Cc1cnc2ccc(F)cc2c1N1CCC(C(=O)N2CCc3ccccc3C2)CC1 | 652 nM | 81% |  | 
Cc1ccc(OC2CCN(c3ncnc4ccc(F)cc34)CC2)cn1 |  |  |  | Fu (Plasma [22]): 0.013; fraction unbound [4]: 0.011; CLhep predicted [5]: 67 mL/min/kg; CLhep predicted [6]: 20 mL/min/kg; fraction unbound [7]: 0.007; Kp at 25 min [8]: 1.16; Kp uu at 25 min [9]: 0.74
COc1ccc2c(c1)CCN(C(=O)C1CCN(c3c(C#N)cnc4ccc(F)cc34)CC1)C2 | 648 nM | 76% |  | fraction unbound [3]: 0.011; fraction unbound [4]: 0.013; CLhep predicted [5]: 64 mL/min/kg; CLhep predicted [6]: 20 mL/min/kg; fraction unbound [7]: 0.007; Kp at 25 min [8]: 1.26; Kp uu at 25 min [9]: 0.68
Cc1ccc(OC2CCN(c3ccnc4ccc(F)cc34)CC2)cn1 | 2210 nM | 62% | 2140 nM | 
N#Cc1cnc2ccc(F)cc2c1N1CCC(C(=O)NCc2ccccc2)CC1 |  | 68 to 78% | 1230 nM | EC50 [10]: 2560 nM; fraction unbound [3]: 0.031; fraction unbound [4]: 0.028; CLhep predicted [5]: 61 mL/min/kg; CLhep predicted [6]: 17 mL/min/kg; Emax [19]: 49%
